# Laboratory results: patent US7772180B2, “Hepatitis C virus inhibitors” (Bristol-Myers Squibb Company, priority 2006, dated 2010)
# Where two headings read alike, the source gives them in different places.
# Tests used:
# [1] = biological target: T1, HCV NS3/4A protease complex, BMS strain (UniProt P27958, species not given/STRAIN_BMS); assay: FRET peptide assay to monitor HCV NS3/4A proteolytic activity (BMS strain); assay type: biochemical, Hepatitis C virus (genotype 1a); conditions: read-out: HCV Protease (IC50), NS3/4A BMS strain
# T1 construct: other: NS3/4A BMS strain; activity range class; numeric values, unit not given; said of H77 and J4L6S; fused on or other part: A three-lysine solubilising tail at the C-terminus of NS4A; A His tag is implied by the pET21b vector and Ni-NTA purification; Both are printed for the H77 and J4L6S constructs and apply to BMS by inference
# Source text: HCV NS3 protease complexes, derived from the BMS strain, H77 strain or J4L6S strain, were generated, as described below. These purified recombinant proteins were generated for use in a homogeneous assay (see below) to provide an indication of how effective compounds of the present disclosure would be in inhibiting HCV NS3 proteolytic activity.
# Serum from an HCV-infected patient was obtained from Dr. T. Wright, San Francisco Hospital. An engineered full-length cDNA (compliment deoxyribonucleic acid) template of the HCV genome (BMS strain) was constructed from DNA fragments obtained by reverse transcription-PCR (RT-PCR) of serum RNA (ribonucleic acid) and using primers selected on the basis of homology between other genotype 1a strains. From the determination of the entire genome sequence, a genotype 1a was assigned to the HCV isolate according to the classification of Simmonds et al. (See P Simmonds, K A Rose, S Graham, S W Chan, F McOmish, B C Dow, E A Follett, P L Yap and H Marsden, J. Clin. Microbiol., 31(6), 1493-1503 (1993)). […] The infectious clones, H77 (1a genotype) and J4L6S (1b genotype) were obtained from R. Purcell (NIH) and the sequences are published in Genbank (AAB67036, see Yanagi, M., Purcell, R. H., Emerson, S. U. and Bukh, J. Proc. Natl. Acad. Sci. U.S.A. 94(16), 8738-8743 (1997); AF054247, see Yanagi, M., St Claire, M., Shapiro, M., Emerson, S. U., Purcell, R. H. and Bukh, J. Virology 244 (1), 161-172. (1998)).
# NS3/4A protease complex-containing fractions were pooled and loaded on a desalting column Superdex-S200 pre-equilibrated with buffer D (25 mM HEPES, pH 7.5, 20% glycerol, 300 mM NaCl, 0.2% Triton X-100, 10 mM βME). Sample was loaded at a flow rate of 1 mL/min. NS3/4A protease complex-containing fractions were pooled and concentrated to approximately 0.5 mg/ml. The purity of the NS3/4A protease complexes, derived from the BMS, H77 and J4L6S strains, were judged to be greater than 90% by SDS-PAGE and mass spectrometry analyses. The enzyme was stored at −80° C., thawed on ice and diluted prior to use in assay buffer.
# The purpose of this in vitro assay was to measure the inhibition of HCV NS3 protease complexes, derived from the BMS strain, H77 strain or J4L6S strain, as described above, by compounds of the present disclosure. This assay provides an indication of how effective compounds of the present disclosure would be in inhibiting HCV NS3 proteolytic activity.
# In order to monitor HCV NS3/4A protease activity, an NS3/4A peptide substrate was used. The substrate was RET S1 (Resonance Energy Transfer Depsipeptide Substrate; AnaSpec, Inc. cat #22991) (FRET peptide), described by Taliani et al. in Anal. Biochem. 240(2):60-67 (1996). The sequence of this peptide is loosely based on the NS4A/NS4B natural cleavage site for the HCV NS3 protease except there is an ester linkage rather than an amide bond at the cleavage site. The peptide also contains a fluorescence donor, EDANS, near one end of the peptide and an acceptor, DABCYL, near the other end. The fluorescence of the peptide is quenched by […] resonance energy transfer (RET) between the donor and the acceptor, but as the NS3 protease cleaves the peptide the products are released from RET quenching and the fluorescence of the donor becomes apparent.
# The peptide substrate was incubated with one of the three recombinant NS3/4A protease complexes, in the absence or presence of a compound of the present disclosure. The inhibitory effects of a compound were determined by monitoring the formation of fluorescent reaction product in real time using a Cytofluor Series 4000.
# Assay buffer: 50 mM HEPES, pH 7.5; 0.15 M NaCl; 0.1% Triton; 15% Glycerol; 10 mM βME. Substrate: 2 μM final concentration (from a 2 mM stock solution in DMSO stored at −20° C.). HCV NS3/4A protease type 1a (1b), 2-3 nM final concentration (from a 5 μM stock solution in 25 mM HEPES, pH 7.5, 20% glycerol, 300 mM NaCl, 0.2% Triton-X100, 10 mM βME). […]
# [2] = system: HCV replicon (strain 1b) in HUH-7 cells; assay: HCV replicon FRET assay; assay type: cell-based, Hepatitis C virus
# Source text: An HCV replicon whole cell system was established as described by Lohmann V, Korner F, Koch J, Herian U, Theilmann L, Bartenschlager R., Science 285(5424): 110-3 (1999). This system enabled us to evaluate the effects of our HCV Protease compounds on HCV RNA replication. Briefly, using the HCV strain 1b sequence described in the Lohmann paper (Assession number: AJ238799), an HCV cDNA was synthesized by Operon Technologies, Inc. (Alameda, Calif.), and the full-length replicon was then assembled in plasmid pGem9zf(+) (Promega, Madison, Wis.) using standard molecular biology techniques. The replicon consists of (i) the HCV 5′ UTR fused to the first 12 amino acids of the capsid protein, (ii) the neomycin phosphotransferase gene (neo), (iii) the IRES from encephalomyocarditis virus (EMCV), and (iv) HCV NS3 to NS5B genes and the HCV 3′ UTR. Plasmid DNAs were linearized with ScaI and RNA transcripts were synthesized in vitro using the T7 MegaScript transcription kit (Ambion, Austin, Tex.) according to manufacturer's directions. In vitro transcripts of the cDNA were transfected into the human hepatoma cell line, HUH-7. […] Resulting cell lines were characterized for positive and negative strand RNA production and protein production over time.
# The HCV replicon FRET assay was developed to monitor the inhibitory effects of compounds described in the disclosure on HCV viral replication. HUH-7 cells, constitutively expressing the HCV replicon, were grown in Dulbecco's Modified Eagle Media (DMEM) (Gibco-BRL) containing 10% Fetal calf serum (FCS) (Sigma) and 1 mg/ml G418 (Gibco-BRL). Cells were seeded the night before (1.5×10^4 cells/well) in 96-well tissue-culture sterile plates. Compound and no compound controls were prepared in DMEM containing 4% FCS, 1:100 Penicillin/Streptomysin (Gibco-BRL), 1:100 L-glutamine and 5% DMSO in the dilution plate (0.5% DMSO final concentration in the assay). Compound/DMSO mixes were added to the cells and incubated for 4 days at 37° C. After 4 days, cells were first assessed for cytotoxicity using alamar Blue (Trek Diagnotstic Systems) for a CC50 reading. The toxicity of compound (CC50) was determined by adding 1/10th volume of alamarBlue to the media incubating the cells. After 4 hours, the fluorescence signal from each well was read, with an excitation wavelength at 530 nm and an emission wavelength of 580 nm, using the Cytofluor Series 4000 (Perspective Biosystems). Plates were then rinsed thoroughly with Phosphate-Buffered Saline (PBS) (3 times 150 μl).
# [3] = Hepatitis C virus, Huh-7, read-out: HCV Pro Replicon (EC50), HCV replicon cell assay, activity range class
# [4] = Hepatitis C virus, Huh-7, read-out: HCV Pro Replicon (EC50), HCV replicon cell assay, numeric values, unit inferred
# [5] = read-out: HCV Pro Replicon (EC50), HCV replicon cell assay, activity range class
# T1 sequence (P27958 1027-1657, change not shown, one chain of several): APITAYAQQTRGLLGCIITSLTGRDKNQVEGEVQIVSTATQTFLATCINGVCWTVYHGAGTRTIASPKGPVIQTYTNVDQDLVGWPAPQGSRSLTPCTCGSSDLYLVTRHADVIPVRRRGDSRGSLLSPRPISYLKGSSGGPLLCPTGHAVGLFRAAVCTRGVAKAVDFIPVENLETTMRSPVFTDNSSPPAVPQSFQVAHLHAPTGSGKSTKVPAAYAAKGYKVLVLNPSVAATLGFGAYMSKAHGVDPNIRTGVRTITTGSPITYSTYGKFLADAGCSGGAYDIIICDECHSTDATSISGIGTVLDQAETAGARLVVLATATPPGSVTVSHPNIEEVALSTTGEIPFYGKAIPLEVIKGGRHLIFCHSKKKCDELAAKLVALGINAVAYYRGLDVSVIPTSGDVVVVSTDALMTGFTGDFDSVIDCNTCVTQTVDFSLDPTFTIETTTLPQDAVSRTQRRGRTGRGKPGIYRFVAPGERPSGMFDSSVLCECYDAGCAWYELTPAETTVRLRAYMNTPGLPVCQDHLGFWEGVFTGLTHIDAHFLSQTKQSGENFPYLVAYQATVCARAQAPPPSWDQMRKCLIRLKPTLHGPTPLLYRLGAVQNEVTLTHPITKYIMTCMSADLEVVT
compound,measurement,setting,value
"C=C[C@@H]1C[C@]1(NC(=O)[C@@H]1C[C@@H](Oc2ncc(OC)c3ccc(Cl)cc23)CN1C(=O)[C@@H](Nc1ccc(S(=O)(=O)NC(C)(C)C)cc1)C(C)(C)C)C(=O)NS(=O)(=O)C1CC1 [214 first isomer, N-(4-(tert-butylsulfamoyl)phenyl)-3-methyl-L-valyl-(4R)-4-((7-chloro-4-methoxy-1-isoquinolinyl)oxy)-N-((1R,2S)-1-((cyclopropylsulfonyl)carbamoyl)-2-vinylcyclopropyl)-L-prolinamide]",IC50,[1]; activity range class,0.6 to 20 nM
same,EC50,[2]; [3],100 to 1000 nM
"C=C[C@@H]1C[C@]1(NC(=O)[C@@H]1C[C@@H](Oc2nc(N(C)C)cc3cc(OC)ccc23)CN1C(=O)C(Nc1ccccc1)C(C)(C)C)C(=O)NS(=O)(=O)C1CC1 (single isomer, unassigned) [Compound 19B]",IC50,"[1]; numeric values, unit inferred",1000 nM
same,EC50,[2]; [4],1850 nM
"C=C[C@@H]1C[C@]1(NC(=O)[C@@H]1C[C@@H](Oc2nc(-c3ccc(OC(F)(F)F)cc3)cc3cc(OC)ccc23)CN1C(=O)[C@@H](NC1=NCCCS1)C(C)(C)C)C(=O)NS(=O)(=O)C1CC1 [Compound 37, N-(5,6-dihydro-4H-1,3-thiazin-2-yl)-3-methyl-L-valyl-(4R)—N-((1R,2S)-1-((cyclopropylsulfonyl)carbamoyl)-2-vinylcyclopropyl)-4-((6-methoxy-3-(4-(trifluoromethoxy)phenyl)-1-isoquinolinyl)oxy)-L-prolinamide]",IC50,[1]; activity range class,0.6 to 20 nM
same,EC50,[2]; [3],3 to 100 nM
"C=C[C@@H]1C[C@]1(NC(=O)[C@@H]1C[C@@H](Oc2ncc(OC)c3ccc(Cl)cc23)CN1C(=O)C(Nc1ccc(OC)nc1)C(C)(C)C)C(=O)NS(=O)(=O)C1CC1 (single isomer, unassigned) [408 second isomer]",IC50,[1]; activity range class,> 200 nM
same,EC50,[2]; [5],100 to 1000 nM
"C=C[C@@H]1C[C@]1(NC(=O)[C@@H]1C[C@@H](Oc2ncc(OC)c3ccc(Cl)cc23)CN1C(=O)[C@H](Nc1cccc(S(=O)(=O)NC)c1)C(C)(C)C)C(=O)NS(=O)(=O)C1CC1 [227 second isomer, 3-methyl-N-(3-(methylsulfamoyl)phenyl)-D-valyl-(4R)-4-((7-chloro-4-methoxy-1-isoquinolinyl)oxy)-N-((1R,2S)-1-((cyclopropylsulfonyl)carbamoyl)-2-vinylcyclopropyl)-L-prolinamide]",IC50,[1]; activity range class,> 200 nM
same,EC50,[2]; [3],> 1000 nM
"C=CC1CC1(NC(=O)C1CC(Oc2ncc(OC)c3ccc(Cl)cc23)CN1C(=O)C(Nc1ccccc1)C(C)(C)C)C(=O)NS(=O)(=O)C1CC1 (single isomer, unassigned; isomer 3) [213 first isomer]",IC50,[1]; activity range class,> 200 nM
same,EC50,[2]; [5],100 to 1000 nM
"C=C[C@@H]1C[C@]1(NC(=O)[C@@H]1C[C@@H](Oc2ncc(OC)c3ccc(Cl)cc23)CN1C(=O)C(Nc1cccc(C)n1)C(C)(C)C)C(=O)NS(=O)(=O)C1CC1 (single isomer, unassigned) [28 second isomer]",IC50,[1]; activity range class,20 to 200 nM
same,EC50,[2]; [5],100 to 1000 nM
"C=C[C@@H]1C[C@]1(NC(=O)[C@@H]1C[C@@H](Oc2ncc(OC)c3ccc(Cl)cc23)CN1C(=O)[C@H](Nc1cccc(C(=O)OC(C)(C)C)c1)C(C)(C)C)C(=O)NS(=O)(=O)C1CC1 [210 second isomer, N-(3-(tert-butoxycarbonyl)phenyl)-3-methyl-D-valyl-(4R)-4-((7-chloro-4-methoxy-1-isoquinolinyl)oxy)-N-((1R,2S)-1-((cyclopropylsulfonyl)carbamoyl)-2-vinylcyclopropyl)-L-prolinamide]",IC50,[1]; activity range class,20 to 200 nM
same,EC50,[2]; [3],100 to 1000 nM
"C=C[C@@H]1C[C@]1(NC(=O)[C@@H]1C[C@@H](Oc2ncc(OC)c3ccc(Cl)cc23)CN1C(=O)[C@H](Nc1ccc(S(N)(=O)=O)cc1)C(C)(C)C)C(=O)NS(=O)(=O)C1CC1 [Compound 215B, 3-methyl-N-(4-sulfamoylphenyl)-D-valyl-(4R)-4-((7-chloro-4-methoxy-1-isoquinolinyl)oxy)-N-((1R,2S)-1-((cyclopropylsulfonyl)carbamoyl)-2-vinylcyclopropyl)-L-prolinamide]",IC50,"[1]; numeric values, unit inferred",830 nM
same,EC50,[2]; [4],5490 nM
"C=C[C@@H]1C[C@]1(NC(=O)[C@@H]1C[C@@H](Oc2nccc3cc(OC)ccc23)CN1C(=O)[C@@H](Nc1nc(C)cc(C)n1)C(C)C)C(=O)NS(=O)(=O)C1CC1 [6 second isomer, N-(4,6-dimethyl-2-pyrimidinyl)-L-valyl-(4R)—N-((1R,2S)-1-((cyclopropylsulfonyl)carbamoyl)-2-vinylcyclopropyl)-4-((6-methoxy-1-isoquinolinyl)oxy)-L-prolinamide]",IC50,[1]; activity range class,0.6 to 20 nM
same,EC50,[2]; [3],100 to 1000 nM
"C=C[C@@H]1C[C@]1(NC(=O)[C@@H]1C[C@@H](Oc2ncc(OC)c3ccc(Cl)cc23)CN1C(=O)[C@H](Nc1cccc(C(=O)N(C)C)c1)C(C)(C)C)C(=O)NS(=O)(=O)C1CC1 [218 second isomer, N-(3-(dimethylcarbamoyl)phenyl)-3-methyl-D-valyl-(4R)-4-((7-chloro-4-methoxy-1-isoquinolinyl)oxy)-N-((1R,2S)-1-((cyclopropylsulfonyl)carbamoyl)-2-vinylcyclopropyl)-L-prolinamide]",IC50,[1]; activity range class,> 200 nM
same,EC50,[2]; [3],> 1000 nM
